Legend:
[1] = target: T1, Disintegrin and metalloproteinase domain-containing protein 12 (Homo sapiens, UniProt O43184); test: Inhibition of A disintegrin and metalloprotease domain 12 (ADAM12) binding in cell based assay
T1 sequence (O43184 whole entry): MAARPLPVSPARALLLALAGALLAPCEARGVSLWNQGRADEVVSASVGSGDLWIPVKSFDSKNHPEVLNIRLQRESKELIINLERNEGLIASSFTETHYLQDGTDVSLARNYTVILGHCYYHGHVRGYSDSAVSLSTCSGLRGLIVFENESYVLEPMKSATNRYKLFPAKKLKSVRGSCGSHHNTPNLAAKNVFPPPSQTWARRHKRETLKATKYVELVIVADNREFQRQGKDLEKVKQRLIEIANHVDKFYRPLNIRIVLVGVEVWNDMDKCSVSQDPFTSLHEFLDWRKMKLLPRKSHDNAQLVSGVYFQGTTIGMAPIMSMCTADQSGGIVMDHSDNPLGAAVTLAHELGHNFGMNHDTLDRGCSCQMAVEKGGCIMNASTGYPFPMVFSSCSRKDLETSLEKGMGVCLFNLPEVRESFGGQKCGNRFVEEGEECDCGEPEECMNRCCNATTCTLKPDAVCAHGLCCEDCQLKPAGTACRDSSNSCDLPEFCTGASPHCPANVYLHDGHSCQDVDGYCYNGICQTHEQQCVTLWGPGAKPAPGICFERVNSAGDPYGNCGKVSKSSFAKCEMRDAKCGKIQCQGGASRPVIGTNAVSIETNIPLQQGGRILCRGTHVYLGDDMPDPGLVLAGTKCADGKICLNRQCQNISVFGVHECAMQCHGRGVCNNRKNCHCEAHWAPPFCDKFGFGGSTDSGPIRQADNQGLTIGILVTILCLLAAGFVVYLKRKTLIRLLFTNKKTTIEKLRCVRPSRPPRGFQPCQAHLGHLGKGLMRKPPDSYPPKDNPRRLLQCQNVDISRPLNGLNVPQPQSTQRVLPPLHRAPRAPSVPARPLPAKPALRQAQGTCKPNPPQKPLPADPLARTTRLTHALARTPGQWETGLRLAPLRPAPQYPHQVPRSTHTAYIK

[2] = target: T2, Disintegrin and metalloproteinase domain-containing protein 10 (Homo sapiens, UniProt O14672); test: In vitro inhibition of A disintegrin and metalloprotease domain 10 (ADAM10)
T2 sequence (O14672 whole entry): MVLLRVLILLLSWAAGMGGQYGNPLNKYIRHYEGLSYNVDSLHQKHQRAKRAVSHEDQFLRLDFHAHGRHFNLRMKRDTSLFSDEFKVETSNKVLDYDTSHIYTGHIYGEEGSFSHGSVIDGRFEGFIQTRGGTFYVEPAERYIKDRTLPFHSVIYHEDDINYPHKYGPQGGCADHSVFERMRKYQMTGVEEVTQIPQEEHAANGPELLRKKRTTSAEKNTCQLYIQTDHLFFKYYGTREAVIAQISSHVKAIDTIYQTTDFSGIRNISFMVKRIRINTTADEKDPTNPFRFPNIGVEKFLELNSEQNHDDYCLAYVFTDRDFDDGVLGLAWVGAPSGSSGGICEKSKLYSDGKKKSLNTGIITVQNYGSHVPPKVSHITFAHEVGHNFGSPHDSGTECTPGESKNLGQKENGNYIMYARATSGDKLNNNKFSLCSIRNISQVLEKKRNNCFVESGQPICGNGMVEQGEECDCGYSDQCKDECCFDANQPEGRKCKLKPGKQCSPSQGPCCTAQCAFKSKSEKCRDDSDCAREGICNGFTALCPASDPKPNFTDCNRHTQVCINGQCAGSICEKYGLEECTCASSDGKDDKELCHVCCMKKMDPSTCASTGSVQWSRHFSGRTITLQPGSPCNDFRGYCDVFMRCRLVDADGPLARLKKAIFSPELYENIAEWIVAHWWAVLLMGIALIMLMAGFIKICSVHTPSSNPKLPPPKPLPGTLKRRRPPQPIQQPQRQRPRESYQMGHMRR

[3] = target: T3, Disintegrin and metalloproteinase domain-containing protein 9 (Homo sapiens, UniProt Q13443); test: In vitro inhibition of A disintegrin and metalloprotease domain 9 (ADAM9)
T3 sequence (Q13443 whole entry): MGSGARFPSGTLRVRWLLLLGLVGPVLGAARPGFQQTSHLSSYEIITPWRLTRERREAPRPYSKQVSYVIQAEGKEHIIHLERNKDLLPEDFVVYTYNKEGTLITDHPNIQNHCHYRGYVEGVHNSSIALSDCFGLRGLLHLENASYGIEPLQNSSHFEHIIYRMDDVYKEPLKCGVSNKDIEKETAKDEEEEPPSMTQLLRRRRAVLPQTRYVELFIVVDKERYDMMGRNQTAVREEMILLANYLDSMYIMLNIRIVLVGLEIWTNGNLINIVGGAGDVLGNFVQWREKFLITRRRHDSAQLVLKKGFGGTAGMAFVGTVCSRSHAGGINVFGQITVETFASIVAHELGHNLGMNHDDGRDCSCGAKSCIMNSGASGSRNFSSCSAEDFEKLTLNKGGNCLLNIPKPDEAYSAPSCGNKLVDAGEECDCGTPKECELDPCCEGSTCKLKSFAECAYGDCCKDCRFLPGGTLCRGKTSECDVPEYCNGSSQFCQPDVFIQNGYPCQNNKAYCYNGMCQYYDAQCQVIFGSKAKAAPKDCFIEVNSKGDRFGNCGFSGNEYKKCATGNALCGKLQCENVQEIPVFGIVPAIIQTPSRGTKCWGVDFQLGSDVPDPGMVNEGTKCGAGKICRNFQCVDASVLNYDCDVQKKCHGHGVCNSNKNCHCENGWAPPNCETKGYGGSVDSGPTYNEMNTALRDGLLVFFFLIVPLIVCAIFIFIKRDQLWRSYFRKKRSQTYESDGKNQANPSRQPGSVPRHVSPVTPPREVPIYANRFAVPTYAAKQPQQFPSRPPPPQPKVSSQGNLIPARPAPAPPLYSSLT

[4] = target: Disintegrin and metalloproteinase domain-containing protein 17 (Homo sapiens, UniProt P78536); test: In vitro inhibition of A disintegrin and metalloprotease domain 17 (ADAM17, TACE)
Chain of Disintegrin and metalloproteinase domain-containing protein 17 (P78536 whole entry, the tested form may be a part): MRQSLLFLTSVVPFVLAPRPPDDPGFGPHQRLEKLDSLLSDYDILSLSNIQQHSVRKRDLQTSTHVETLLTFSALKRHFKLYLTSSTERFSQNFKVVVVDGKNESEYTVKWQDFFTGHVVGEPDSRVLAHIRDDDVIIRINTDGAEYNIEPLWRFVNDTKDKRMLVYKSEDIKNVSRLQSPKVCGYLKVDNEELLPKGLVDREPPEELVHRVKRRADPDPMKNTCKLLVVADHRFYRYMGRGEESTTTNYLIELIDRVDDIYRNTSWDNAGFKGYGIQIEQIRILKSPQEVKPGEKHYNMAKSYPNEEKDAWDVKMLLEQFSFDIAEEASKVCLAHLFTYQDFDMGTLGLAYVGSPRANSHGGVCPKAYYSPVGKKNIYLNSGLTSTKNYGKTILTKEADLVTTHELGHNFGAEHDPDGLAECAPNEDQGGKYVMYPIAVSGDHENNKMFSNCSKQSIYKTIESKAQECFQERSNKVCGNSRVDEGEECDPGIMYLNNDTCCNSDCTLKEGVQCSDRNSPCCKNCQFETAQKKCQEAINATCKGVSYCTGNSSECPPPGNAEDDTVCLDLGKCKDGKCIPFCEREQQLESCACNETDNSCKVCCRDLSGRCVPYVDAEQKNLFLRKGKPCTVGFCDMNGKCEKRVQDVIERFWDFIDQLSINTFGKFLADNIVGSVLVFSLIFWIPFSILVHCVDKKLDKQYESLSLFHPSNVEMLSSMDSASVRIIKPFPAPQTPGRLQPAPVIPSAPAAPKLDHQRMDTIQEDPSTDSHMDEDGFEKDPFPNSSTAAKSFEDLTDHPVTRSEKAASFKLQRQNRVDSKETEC

| IC50 [1] [nM] | IC50 [2] [nM] | IC50 [3] [nM] | IC50 [4] [nM] | SMILES |
| --- | --- | --- | --- | --- |
| 40.5 | > 10500 | – | – | CC(C)C(NC(=O)/C(=C\c1ccccc1F)NC(=O)c1ccccc1)C(=O)O (stereo unspecified) |
| 24.8 | – | – | – | CC(NC(=O)/C(=C\c1ccc(Br)cc1)NC(=O)c1ccc(Br)o1)C(=O)O (stereo unspecified) |
| 42.3 | 10500 | – | – | CC(NC(=O)/C(=C\c1ccco1)NC(=O)c1ccco1)C(=O)O (stereo unspecified) |
| 16.7 | > 10500 | – | – | O=C(O)CNC(=O)/C(=C\c1cccc(Br)c1)NC(=O)c1ccco1 |
| 5.93 | 8.1 | 1 | 7.5 | CNC(=O)[C@H](Cc1c[nH]c2ccccc12)NC(=O)[C@@H](CC(=O)NO)CC(C)C [ILOMASTAT] |
